Experimental data published in BindingDB's records for doi:10.1021/jm970446z (National Institute of Diabetes, 1998).

How the values were obtained:
[1] = target: Adenosine receptor A2a (Rattus norvegicus, UniProt P30543); assay: Ability to displace [3H]-CGS- 21680 binding from adenosine A2A receptor.
[2] = target: T1, Adenosine receptor A3 (Homo sapiens, UniProt P0DMS8); assay: Ability to displace [125I]-AB-MECA binding from adenosine A3 receptor.
T1 sequence (P0DMS8 whole entry): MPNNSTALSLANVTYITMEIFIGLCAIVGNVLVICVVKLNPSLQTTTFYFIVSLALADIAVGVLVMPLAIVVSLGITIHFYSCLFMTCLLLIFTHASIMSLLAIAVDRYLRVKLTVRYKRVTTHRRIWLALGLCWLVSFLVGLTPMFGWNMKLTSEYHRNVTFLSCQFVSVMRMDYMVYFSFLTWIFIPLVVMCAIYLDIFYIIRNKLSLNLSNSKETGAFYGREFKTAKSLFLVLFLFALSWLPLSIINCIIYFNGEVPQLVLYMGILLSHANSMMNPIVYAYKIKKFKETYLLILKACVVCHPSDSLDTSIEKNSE

[3] = target: T2, Adenosine receptor A1 (Rattus norvegicus, UniProt P25099); assay: Ability to displace [3H]N6-phenylisopropyladenosine binding from adenosine A1 receptor.
T2 sequence (P25099 whole entry): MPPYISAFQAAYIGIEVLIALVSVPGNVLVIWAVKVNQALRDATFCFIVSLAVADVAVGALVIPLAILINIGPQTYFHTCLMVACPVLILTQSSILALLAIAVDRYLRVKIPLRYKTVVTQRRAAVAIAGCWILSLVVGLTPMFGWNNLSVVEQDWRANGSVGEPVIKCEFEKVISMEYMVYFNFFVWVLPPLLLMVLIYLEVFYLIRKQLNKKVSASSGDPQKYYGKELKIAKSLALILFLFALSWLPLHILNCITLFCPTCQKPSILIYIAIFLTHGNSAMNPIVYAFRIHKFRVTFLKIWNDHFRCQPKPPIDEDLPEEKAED

Chain of Adenosine receptor A2a (P30543 whole entry): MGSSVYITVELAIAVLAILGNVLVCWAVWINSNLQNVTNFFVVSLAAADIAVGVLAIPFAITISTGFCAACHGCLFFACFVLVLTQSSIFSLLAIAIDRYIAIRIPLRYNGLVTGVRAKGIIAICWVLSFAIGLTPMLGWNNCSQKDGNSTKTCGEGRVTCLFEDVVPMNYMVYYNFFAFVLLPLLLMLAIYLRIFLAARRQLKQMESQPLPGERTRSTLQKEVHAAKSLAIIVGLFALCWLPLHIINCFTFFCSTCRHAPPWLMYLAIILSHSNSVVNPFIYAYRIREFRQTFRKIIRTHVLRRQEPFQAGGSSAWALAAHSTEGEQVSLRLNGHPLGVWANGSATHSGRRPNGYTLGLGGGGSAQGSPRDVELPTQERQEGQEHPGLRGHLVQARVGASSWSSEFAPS

Row | Compound | Ki [1] [µM] | Ki [2] [µM] | Ki [3] [µM]
1 | CC(=O)Oc1cc(OC(C)=O)c2c(c1)OC(c1ccccc1)C(OC(C)=O)C2=O (stereo unspecified) | 56.2 | – | –
2 | COc1ccc2c(c1)C(=O)C(O)C(C#Cc1ccccc1)O2 (stereo unspecified) | – | 8.13 | 50.1
3 | COC1(OC)Cc2oc(-c3ccc(O)cc3O)c(CC=C(C)C)c(=O)c2C(O)=C1/C=C/C(C)C | – | 4.57 | –
4 | CCOc1c(-c2c(C)cc(C)cc2C)oc2ccc(Cl)cc2c1=O | – | 0.191 | –
5 | CCOc1ccc(-c2oc3cc(OCC)cc(OCC)c3c(=O)c2OCC)c(OCC)c1 [2-(2,4-Diethoxy-phenyl)-3,5,7-triethoxy-chromen-4-one] | 26.3 | – | –
6 | COc1ccc(-c2cc(=O)c3ccc(O)cc3o2)cc1OC [2-(3,4-dimethoxyphenyl)-7-hydroxy-4H-chromen-4-one] | 34.7 | – | –
7 | O=C1C[C@@H](c2ccc(O)cc2)Oc2ccccc21 [2-(4-hydroxyphenyl)-2,3-dihydro-4H-chromen-4-one] | – | 22.9 | –
8 | O=C1CC(c2ccccc2)Oc2ccccc21 (stereo unspecified) [2-phenyl-2,3-dihydro-4H-chromen-4-one] | – | 16.2 | –
9 | COc1cc(OC)c2c(=O)c(OC)c(-c3cc(OC)c(OC)c(OC)c3)oc2c1 [3,5,7-Trimethoxy-2-(3,4,5-trimethoxy-phenyl)-chromen-4-one] | – | 6.61 | –
10 | COc1cc(OC)c2c(=O)c(OC)c(-c3ccccc3)oc2c1 [3,5,7-Trimethoxy-2-phenyl-chromen-4-one] | – | 0.831 | –
11 | O=c1c(Cl)c(-c2ccccc2)oc2ccccc12 [3-Chloro-2-phenyl-chromen-4-one] | 25.1 | – | –
12 | CCOc1c2ccoc2cc2oc(/C=C/C=C/c3ccccc3)cc(=O)c12 [4-Ethoxy-7-((1E,3E)-4-phenyl-buta-1,3-dienyl)-furo[3,2-g]chromen-5-one] | 166 | – | –
13 | COc1c(O)cc2oc(-c3ccc(O)cc3)cc(=O)c2c1O [5,7-dihydroxy-2-(4-hydroxyphenyl)-6-methoxy-4H-chromen-4-one] | 7.59 | – | –
14 | COc1ccc(-c2cc(=O)c3c(O)cc(C)cc3o2)cc1 [5-Hydroxy-2-(4-methoxy-phenyl)-7-methyl-chromen-4-one] | – | 50.1 | –
15 | COc1cc(O)c2c(c1)O[C@H](c1ccc(O)cc1)CC2=O [5-hydroxy-2-(4-hydroxyphenyl)-7-methoxychroman-4-one] | – | 3.39 | 8.13
16 | O=c1c(Cl)c(-c2ccccc2)oc2ccc(Cl)cc12 [NSC-74876] | 55 | – | –
17 | Cc1ccc(-c2oc3ccc(Cl)cc3c(=O)c2Cl)c(C(C)C)c1 [NSC-74899] | – | 0.562 | –
18 | COc1cc2oc(-c3ccc(O)cc3)cc(=O)c2c(O)c1OC [cirsimartin] | – | 3.16 | –
19 | O=c1c(O)c(-c2ccccc2)oc2cc(O)cc(O)c12 [norizalpinin] | – | 0.589 | –
